We go through 13 molecules from patent US6358967B1, “Ergoline amine derivatives with blood pressure lowering effect” (priority 1998, dated 2002).

Some results are limits rather than exact numbers.

The data set has as its system normotensive Wistar rats. Kind of data set: Invasive blood pressure measurement in anesthetized rats, i.v. administration. The data set is classed as in vivo, rat. As to the method:
Male Wistar rats with a body weight (BW) of 300-450 g were used as experimental animals. The rats are anesthetized immediately before the experiment with 50 mg/kg pentobarbital Na intraperitoneally (i.p.) or 70 mg/kg inactin i.v. PE tubes are tied into the carotid artery and femoral vein.
To maintain the blood pressure and to prevent formation of thrombi in the PE tubes of the blood vessels, each hour 2.5 ml of heparinized 0.9% strength NaCl solution are infused through the femoral vein and 1.2 ml through the carotid artery.
The arterial blood pressure is measured invasively using a PONEMAH hemodynamic analyzer (HSE, March, Germany). Via the tube in the carotid artery, the arterial blood pressure is mechanoelectrically converted in a Statham transducer (ISOTEC), amplified in a Plugsys (DBA module, type 660), digitized in an A/D converter and input into the PC memory over defined time intervals. The values in the memory are then treated with an adapted algorithm in order to establish the blood pressure parameters to be calculated for heart rate, systolic, diastolic and mean blood pressure.
The ergoline derivatives are administered i.v. through the femoral vein as 5 percent EtOH/NaCl (0.9%) solution, 1 ml/kg in a dosage of 0.5 mg/kg test substance.

Setting [1] is: assessment class of duration, 0.5 mg/kg i.v., Table 1.1.
The mark [2] stands for this setting: assessment class of pressure fall, 0.5 mg/kg i.v., Table 1.1.
Where [3] appears, read: change shown as arrow, Wistar rats, 0.5 mg/kg i.v., Table 1.1.
Where [4] appears, read: duration of blood pressure effect, Wistar rats, 0.5 mg/kg i.v., Table 1.1.
The mark [5] stands for this setting: effect (fall) on arterial blood pressure, anesthetized Wistar rats, 0.5 mg/kg i.v., Table 1.1.
The mark [6] stands for this setting: assessment class of duration, 0.5 mg/kg i.v., Table 1.2.
The mark [7] stands for this setting: assessment class of pressure fall, 0.5 mg/kg i.v., Table 1.2.
Setting [8] is: change shown as arrow, Wistar rats, 0.5 mg/kg i.v., Table 1.2.
[9] abbreviates: duration of blood pressure effect, 0.5 mg/kg i.v., Table 1.2.
Where [10] appears, read: effect (fall) on arterial blood pressure, Wistar rats, 0.5 mg/kg i.v., Table 1.2.

Take `CN1CC(CNC(=O)c2ccc(C(=O)NCC3CCCC(CN)C3)cc2)CC2c3cccc4[nH]cc(c34)CC21.O=C(O)C(F)(F)F.O=C(O)C(F)(F)F` (mixture of isomers) [Substance 9703127]: under setting [1], the “Effect pressure/duration: duration” value was “↓↓/↓↓ (up to 30 min)”. For the same molecule, the “Effect pressure/duration: pressure” value under setting [2] is “↓↓/↓↓ (to 30%)”. Also, under setting [3], the Heart rate entry is listed as “→”. The Duration under setting [4] is recorded as >25 min. Under setting [5], this molecule displayed a Diastol. pressure of 29.0%, a Mean pressure of 27.2% and a Systol. pressure of 24.8%.
For `CN1CC(CNC(=O)C2CCC(C(=O)NCCCN3CCN(CCCN)CC3)CC2)CC2c3cccc4[nH]cc(c34)CC21.O=C(O)C(F)(F)F.O=C(O)C(F)(F)F.O=C(O)C(F)(F)F.O=C(O)C(F)(F)F` (mixture of isomers) [Substance 9703133], under “rat, in vivo, iv, 0.5 mg/kg”, the Diastol. pressure was found to be 50.0%, the Duration entry is “ca 60 min”, the “Effect pressure/duration: duration” value is “↓↓↓/↓↓↓ (key: (↓): < 5 min; ↓: up to 10 min; ↓↓: up to 30 min; ↓↓↓: >30 min)” and the “Effect pressure/duration: pressure” value was “↓↓↓/↓↓↓ (key: →: no effect to 5%; (↓): to 10%; ↓: to 20%; ↓↓: to 30%; ↓↓↓: >30%)”. Moreover, for the setting “rat, in vivo, iv, 0.5 mg/kg”, the Heart rate entry is on record as “↑”, the Mean pressure was 45.4% and the Systol. pressure came to 48.4%.
As to `CN1C[C@H](CN)C[C@@H]2c3cccc4[nH]cc(c34)C[C@H]21` [8β-Aminomethyl-6-methylergoline, reference compound], the “Effect pressure/duration: duration” value under setting [1] was “↓↓ (up to 30 min)”. Moreover, the “Effect pressure/duration: pressure” value under setting [2] is recorded as “↓ (to 20%)”. Moreover, the Heart rate result under setting [3] is recorded as “→”. This molecule had a Duration under setting [4] of 30 min. Under setting [5], this molecule registered a Diastol. pressure of 14.3%, a Mean pressure of 15.3% and a Systol. pressure of 16.4%.
As for `CC(C)[C@H]1C(=O)N2CCC[C@H]2[C@]2(O)O[C@](NC(=O)[C@@H]3C[C@@H]4c5cccc6[nH]cc(c56)C[C@H]4N(C)C3)(C(C)C)C(=O)N12` [Dihydroergocornine, reference compound], the “Effect pressure/duration: duration” value under setting [1] is on record as “(↓) (< 5 min)”. Under setting [2], the “Effect pressure/duration: pressure” value is recorded as “’”. The Heart rate entry under setting [3] is listed as “→”. This molecule also came in with a Duration under setting [4] of 3 min. In addition, under setting [5], the Diastol. pressure turned out to be 4.3%, the Mean pressure is 3.3% and the Systol. pressure is 5.0%.
For `CN1C[C@H](C(N)=O)CC2c3cccc4[nH]cc(c34)C[C@H]21` (stereo partly shown) [Dihydrolysergamide, reference compound], under setting [1], the “Effect pressure/duration: duration” value is “(↓)/(↓) (< 5 min)”. Besides, under setting [2], the “Effect pressure/duration: pressure” value was “(↓)/(↓) (to 10%)”. Besides, under setting [3], the Heart rate result is reported as “→”. For the same molecule, the Duration under setting [4] is 5 min. Under setting [5], this molecule gave a Diastol. pressure of 7.1%, a Mean pressure of 8.0% and a Systol. pressure of 8.0%.
`Nc1cc(N2CCCCC2)nc(N)[n+]1[O-]` [Minoxidil, reference compound]: the “Effect pressure/duration: duration” value under setting [1] was “↓/↓ (up to 10 min)”. Besides, the “Effect pressure/duration: pressure” value under setting [2] is “↓/↓ (to 20%)”. Also, under setting [3], the Heart rate entry is on record as “→”. Moreover, the Duration result under setting [4] is “ca 10 min”. For the same molecule, under setting [5], the Diastol. pressure stood at 8.1%, the Mean pressure amounted to 7.1% and the Systol. pressure turned out to be 6.6%.
As for `CN1CC(CNC(=O)c2ccc(C(=O)NC3CCC(N)CC3)cc2)CC2c3cccc4[nH]cc(c34)CC21.O=C(O)C(F)(F)F.O=C(O)C(F)(F)F` (stereo not shown) [Substance 9703112], the “Effect pressure/duration: duration” value under setting [1] was “↓↓/↓↓ (up to 30 min)”. Also, under setting [2], the “Effect pressure/duration: pressure” value is listed as “↓↓/↓↓ (to 30%)”. Further, the Heart rate result under setting [3] is reported as “→”. Moreover, the Duration under setting [4] came out at 18 min. Under setting [5], this molecule showed a Diastol. pressure of 31.7%, a Mean pressure of 29.2% and a Systol. pressure of 25.2%.
Turning to `CN1CC(CNC(=O)CCCCC(=O)NC2CCC(N)CC2)CC2c3cccc4[nH]cc(c34)CC21.O=C(O)C(F)(F)F.O=C(O)C(F)(F)F` (stereo not shown) [Substance 9703114], where the note is “rat, in vivo, iv, 0.5 mg/kg”, the Diastol. pressure is 20.7%, the Duration was determined as 40 min, the “Effect pressure/duration: duration” value is recorded as “↓↓/↓↓↓ (key: (↓): < 5 min; ↓: up to 10 min; ↓↓: up to 30 min; ↓↓↓: >30 min)” and the “Effect pressure/duration: pressure” value was “↓↓/↓↓↓ (key: →: no effect to 5%; (↓): to 10%; ↓: to 20%; ↓↓: to 30%; ↓↓↓: >30%)”. Also, under “rat, in vivo, iv, 0.5 mg/kg”, the Heart rate entry was “→”, the Mean pressure is recorded as 20.3% and the Systol. pressure is reported as 18.8%.
For `CN1CC(CNC(=O)CCCCC(=O)NCc2cccc(CN)c2)CC2c3cccc4[nH]cc(c34)CC21.O=C(O)C(F)(F)F.O=C(O)C(F)(F)F` (stereo not shown) [Substance 9703123], where the note is “rat, in vivo, iv, 0.5 mg/kg”, the Diastol. pressure amounted to 44.3%, the Duration stood at 7 min, the “Effect pressure/duration: duration” value is “↓↓↓/↓ (key: (↓): < 5 min; ↓: up to 10 min; ↓↓: up to 30 min; ↓↓↓: >30 min)” and the “Effect pressure/duration: pressure” value is on record as “↓↓↓/↓ (key: →: no effect to 5%; (↓): to 10%; ↓: to 20%; ↓↓: to 30%; ↓↓↓: >30%)”. Besides, where the note is “rat, in vivo, iv, 0.5 mg/kg”, the Heart rate result is given as “→”, the Mean pressure was 43.4% and the Systol. pressure came out at 38.0%.
With `CN1CC(CNC(=O)c2ccc(C(=O)NCCCN3CCN(CCCN)CC3)cc2)CC2c3cccc4[nH]cc(c34)CC21.O=C(O)C(F)(F)F.O=C(O)C(F)(F)F.O=C(O)C(F)(F)F.O=C(O)C(F)(F)F` (stereo not shown) [Substance 9703125], under “rat, in vivo, iv, 0.5 mg/kg”, the Diastol. pressure stood at 14.0%, the Duration is on record as 90 min, the “Effect pressure/duration: duration” value is recorded as “↓/↓↓↓ (key: (↓): < 5 min; ↓: up to 10 min; ↓↓: up to 30 min; ↓↓↓: >30 min)” and the “Effect pressure/duration: pressure” value is given as “↓/↓↓↓ (key: →: no effect to 5%; (↓): to 10%; ↓: to 20%; ↓↓: to 30%; ↓↓↓: >30%)”. For the setting “rat, in vivo, iv, 0.5 mg/kg”, the Heart rate result is listed as “→”, the Mean pressure was 13.7% and the Systol. pressure was 13.1%.
Turning to `Cc1nc(C)c(C(=O)NC2CCC(N)CC2)cc1C(=O)NCC1CC2c3cccc4[nH]cc(c34)CC2N(C)C1.O=C(O)C(F)(F)F.O=C(O)C(F)(F)F` (stereo not shown) [Substance 9703137], under setting [1], the “Effect pressure/duration: duration” value is reported as “↓↓↓/↓↓↓ (>30 min)”. In addition, the “Effect pressure/duration: pressure” value under setting [2] is on record as “↓↓↓/↓↓↓ (>30%)”. Also, under setting [3], the Heart rate entry is given as “→”. The Duration entry under setting [4] is on record as “ca 95 min”. Besides, under setting [5], the Diastol. pressure is 64.8%, the Mean pressure was found to be 60.2% and the Systol. pressure came out at 56.5%.
`CN1CC(CNC(=O)c2ccc(SSc3ccc(C(=O)NC4CCC(N)CC4)cn3)nc2)CC2c3cccc4[nH]cc(c34)CC21.O=C(O)C(F)(F)F.O=C(O)C(F)(F)F` (stereo not shown) [Substance 9703155]: under setting [6], the “Effect pressure/duration: duration” value was “↓↓↓ (> 30 min)”. Moreover, the “Effect pressure/duration: pressure” value under setting [7] is listed as “↓↓ (to 30%)”. For the same molecule, the Heart rate entry under setting [8] is “→”. For the same molecule, the Duration entry under setting [9] is “ca 60 min”. Besides, under setting [10], the “Diastol. pressure” value turned out to be 25.9%, the Mean pressure amounted to 26.9% and the “Systol. pressure” value was 24.7%.
As for `CN1CC(CNC(=O)c2c(F)c(F)c(F)c(F)c2C(=O)NC2CCC(N)CC2)CC2c3cccc4[nH]cc(c34)CC21.O=C(O)C(F)(F)F.O=C(O)C(F)(F)F` (stereo not shown) [Substance 9703156], under setting [6], the “Effect pressure/duration: duration” value is on record as “↓↓ (up to 30 min)”. In addition, the “Effect pressure/duration: pressure” value under setting [7] was “↓↓↓ (> 30%)”. For the same molecule, under setting [8], the Heart rate entry is “→”. The molecule also yielded a Duration under setting [9] of 13 min. In addition, under setting [10], the “Diastol. pressure” value is listed as 43.4%, the Mean pressure stood at 38.6% and the “Systol. pressure” value stood at 33.4%.
